Results: patent publication US5466675A, “Immunological activity of rhamnolipids” (priority 1992, dated 1995)
Where two headings read alike, the source gives them in different places.

Experiments:
carboxypeptidase A = test: enzyme inhibition, carboxypeptidase A; type: biochemical
Experimental: (§1) Rhamnolipid (II) was tested in vitro against a wide array of enzymes.
The following enzymes were inhibited at the various rhamnolipid concentrations indicated:
(§2) All enzyme assays were done spectrophotometrically by computer linked automatic microplate reader (Labsystem Multiskan) and Diode Array spectrophotometer (Perkin Elmer).

P561ek Tyrosine Kinase = P561ek Tyrosine Kinase (Homo sapiens, UniProt P06239); test: enzyme inhibition, p56lck tyrosine kinase; type: biochemical; conditions: 0.5% DMSO
Sequence of P561ek Tyrosine Kinase (P06239 whole entry): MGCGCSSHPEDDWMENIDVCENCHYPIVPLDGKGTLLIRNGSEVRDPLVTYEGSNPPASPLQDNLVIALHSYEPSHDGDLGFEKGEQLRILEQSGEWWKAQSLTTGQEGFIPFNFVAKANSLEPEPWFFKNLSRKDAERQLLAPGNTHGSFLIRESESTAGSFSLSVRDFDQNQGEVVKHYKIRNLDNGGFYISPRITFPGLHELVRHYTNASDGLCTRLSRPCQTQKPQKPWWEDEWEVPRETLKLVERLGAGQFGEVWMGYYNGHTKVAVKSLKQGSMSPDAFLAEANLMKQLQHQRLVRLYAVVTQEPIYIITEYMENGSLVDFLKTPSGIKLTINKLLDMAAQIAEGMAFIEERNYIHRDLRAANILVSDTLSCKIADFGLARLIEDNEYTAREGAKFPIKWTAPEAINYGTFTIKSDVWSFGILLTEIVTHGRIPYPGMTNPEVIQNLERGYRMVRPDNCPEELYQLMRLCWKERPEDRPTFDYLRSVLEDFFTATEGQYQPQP
Experimental: as §1, §2

[1] = target: Dopamine D1 (human recombinant) (Homo sapiens, UniProt P21728); test: [3H] SCH23390 dopamine D1 receptor inhibition; type: binding; conditions: 0.5% DMSO
Sequence of Dopamine D1 (human recombinant) (P21728 whole entry): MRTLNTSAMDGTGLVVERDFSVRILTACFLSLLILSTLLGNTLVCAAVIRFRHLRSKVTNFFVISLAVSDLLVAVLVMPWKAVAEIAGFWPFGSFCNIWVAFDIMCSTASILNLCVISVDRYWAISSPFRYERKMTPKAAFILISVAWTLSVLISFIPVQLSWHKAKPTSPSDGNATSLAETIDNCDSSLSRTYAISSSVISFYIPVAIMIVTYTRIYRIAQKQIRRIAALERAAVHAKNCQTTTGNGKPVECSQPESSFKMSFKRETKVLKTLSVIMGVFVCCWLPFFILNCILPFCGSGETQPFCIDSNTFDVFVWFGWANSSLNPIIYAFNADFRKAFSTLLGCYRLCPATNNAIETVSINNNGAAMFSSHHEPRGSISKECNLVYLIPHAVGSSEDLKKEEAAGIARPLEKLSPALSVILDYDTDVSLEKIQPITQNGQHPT

[2] = system: Dopamine D2A (human recombinant); test: [3H] spiperone dopamine D2A receptor inhibition; type: binding; conditions: 100 uM
alpha-chymotrypsin = test: enzyme inhibition, alpha-chymotrypsin; type: biochemical
Experimental: as §1, §2

alpha-glucosidase = test: enzyme inhibition, alpha-glucosidase; type: biochemical
Experimental: as §1, §2

alkalinephosphatase = test: enzyme inhibition, alkalinephosphatase; type: biochemical
Experimental: as §1, §2

Candida albicans = test: minimum inhibitory concentration, Candida albicans; type: cell-based; conditions: in tested medium
Source text: The Minimum inhibitory concentration (MIC) of Rhamnolipid II for Candida albicans, Escherichia coli, Staphylococcus aureus and Pseudomonas aeruginosa was >0.5% in tested medium.

[3] = system: A431 human epidermal cells; test: A431 cell DNA synthesis ([3H] thymidine incorporation); type: cell-based; conditions: for inhibition of DNA synthesis: absence of serum growth factors; for activity at 1 µg/mL / activity at 10 µg/mL / activity at 100 µg/mL: Homo sapiens, read-out: DNA synthesis, % placebo
Experimental: A431 cells were cultured for 24 h in microtitter platesm, with serum free medium or in the presence of serum with rhamnolipid. Then, [^3 H] thymidine was added and cells were harvested after 48 h; [^3 H] incorporated into DNA was determined.

citrate bovine blood = test: hemolytic activity; type: cell-based
Experimental: Hemolytic activity of rhamnolipid (II) could be seen after sedimentation of erythrocytes, when hemoglobin colored the solution. If there was no hemolytic activity, erythrocytes would have precipitated without coloring the solution. For test purposes 1 ml of citrate bovine blood was added to 49 ml of isotonic solution.
Series of test samples were prepared in concentrations ranging from 1.0 mg/ml to 0.01 mg/ml. 1 ml of diluted citric bovine blood was added to 1 ml of diluted test sample. The test tube was gently mixed and left for 0.25 h, 1 h and 24 h, respectively. The lowest dose of rhamnolipid II that caused hemolysis in 15 min. was 0.35 mg/ml; in 1 h was 0.25 mg/ml and in 24 h was 0.125 mg/ml.

[4] = system: B-cells isolated from mouse spleens; test: B-lymphocyte proliferation; type: cell-based; conditions: B-cell, 0.5% DMSO, read-out: % Stimulation (+)/Suppression (-)
Experimental: Procedure: B-cells were isolated from mouse spleens using conventional procedures, and suspended in DMEM. 10^6 cells/ml were incubated overnight at 37° C. to assess stimulation (positive score, related to 1 ug/ml lipopolysaccharide) or suppression (negative score, related to blank control) of cell proliferation. The test substance was evaluated under these conditions at 10, 1, 0.1, 0.01 and 0.001 uM. After overnight incubation, 2 uCi [^3 H] thymidine incorporation was assessed by liquid scintillation counting.

[5] = system: sheep red blood cell (SRBC) hemagglutination; test: immunosuppression (humoral): sheep red blood cell (SRBC) hemagglutination; type: in vivo, mouse (ICR, female)
Experimental: Groups of 6 mice were sensitized by the IV injection of 0.2 ml of a 2% SRBC suspension. On the 9th day following sensitization, blood samples were withdrawn from the orbital sinus and equal parts of complement inactivated serum from the group of 6 mice were pooled to yield a single 0.25 ml sample. Serial 2-fold dilutions were then carried out 10 times in the presence of added complement. […] Serum titers of less than 16 or greater than 128 are considered significant and indicate possible immunosuppressant and immunostimulant activity, respectively.
For immunostimulant activity, test substance or vehicle was administered i.p. to groups of mice for 3 consecutive days, and sensitized to SRBCs 2 hours after the third (last) injection. For immunosuppressant activity, test substance or vehicle was administered i.p. to groups of mice for 3 consecutive days beginning 2 hours after sensitization to SRBCs.

mice C57B1/6 = conditions: mouse, in vivo
Experimental: Tests were performed on mice C57B1/6, Animal source: Bantin and Kingman. This was done following the procedures described elsewhere in Technical Report Series, National Toxicology Program, U.S. Department of Health and Human services.
Examinations were made in all tests on the following tissues from each mouse necropsied: bone (femur), bone marrow (femur)-slide only, brain, colon, duodenum, testes, heart, kidneys, liver, lungs (infuse with formalin), pancreas, spleen, muscle, adrenal nodes, uterus, gastric.

Neurodermitis = test: clinical treatment of neurodermitis; type: in vivo, human; conditions: twice a day; occlusions up to 24 hours
Experimental: Two patients with Neurodermitis were treated at the beginning of 1992. Rhamnolipid II was applied on affected regions twice a day; occlusions were applied as well (up to 24 hours).
The treatment and monitoring of patients was, again, a "double blind" experiment. Other affected regions where corticosteroids were applied were used for comparison.

Lichen ruber planus = conditions: 1% rhamnolipid ointment; Belgium patent No. 1,005,704; cited from earlier work
in vitro = conditions: monkey, vero cells

## CCCCCCCC(CC(=O)O)OC(=O)CC(CCCCCCC)O[C@@H]1O[C@@H](C)[C@H](O)[C@@H](O)[C@H]1O[C@@H]1O[C@@H](C)[C@H](O)[C@@H](O)[C@H]1O (stereo partly drawn) [Rhamnolipid (II), (alpha-L-rhamnopyranosyl-(1,2)alpha-L-rhamnopyranosyl)-3-hydroxydecanoyl-3-hydroxydecanoic acid]
Carboxypeptidase A
  concentration at which the enzyme was inhibited: 1 mg/mL
P561ek Tyrosine Kinase; 0.01 μM
  inhibition at 0.01 µM: 4%
P561ek Tyrosine Kinase; 1 μM
  inhibition at 1 µM: 3%
P561ek Tyrosine Kinase; 100 μM
  inhibition at 100 µM: 11%
[1]; 0.01 μM
  inhibition at 0.01 µM: 8%
[1]; 1 μM
  inhibition at 1 µM: 8%
[1]; 100 μM
  inhibition at 100 µM: 101%
[2]
  inhibition of the dopamine D2A receptor: 53%
alpha-chymotrypsin
  effect on enzyme: no effect
alpha-glucosidase
  effect on enzyme: no effect
alkalinephosphatase
  effect on enzyme: no effect
Candida albicans
  Minimum inhibitory concentration (MIC): > 0.5%
[3]; 0.1 mg/ml
  inhibition of DNA synthesis: completely inhibited
[3]; 0.1 mg/ml, listed as rhamnolipid II
  inhibition of DNA synthesis: total inhibition
[3]; 10 (v/v) % FCS, 0.001 mg/ml
  DNA synthesis [3H] Thy inc.: 35400 +/- 2786 dpm
[3]; 10 (v/v) % FCS, 0.01 mg/ml
  DNA synthesis [3H] Thy inc.: 31273 +/- 2028 dpm
[3]; 10 (v/v) % FCS, 0.1 mg/ml
  DNA synthesis [3H] Thy inc.: 37055 +/- 1881 dpm
[3]; A-431, 10 (v/v) % FCS, 0.001 mg/ml
  activity at 1 µg/mL: 106 ± 8%
[3]; A-431, 10 (v/v) % FCS, 0.01 mg/ml
  activity at 10 µg/mL: 94 ± 6%
[3]; A-431, 10 (v/v) % FCS, 0.1 mg/ml
  activity at 100 µg/mL: 111 ± 6%
[3]; A-431, serum free medium, 0.001 mg/ml
  activity at 1 µg/mL: 91 ± 32%
[3]; A-431, serum free medium, 0.01 mg/ml
  activity at 10 µg/mL: 64 ± 19%
[3]; A-431, serum free medium, 0.1 mg/ml
  activity at 100 µg/mL: 2 ± 2%
[3]; serum free medium, 0.001 mg/ml
  DNA synthesis [3H] Thy inc.: 6935 +/- 2432 dpm
[3]; serum free medium, 0.01 mg/ml
  DNA synthesis [3H] Thy inc.: 4885 +/- 1480 dpm
[3]; serum free medium, 0.1 mg/ml
  DNA synthesis [3H] Thy inc.: 134 +/- 129 dpm
Citrate bovine blood; 15 min
  lowest dose that caused hemolysis: 0.35 mg/mL
Citrate bovine blood; 1 h
  lowest dose that caused hemolysis: 0.25 mg/mL
Citrate bovine blood; 24 h
  lowest dose that caused hemolysis: 0.125 mg/mL
Citrate bovine blood; diluted in 2 ml isotonic solution of diluted citric bovine blood, lower did not
  amount that led to hemolytic activity: 0.25 mg
[4]; 0.001 uM
  activation at 0.001 µM: 4%
[4]; 0.01 uM
  activation at 0.01 µM: 8%
[4]; 0.1 uM
  activation at 0.1 µM: 10%
[4]; 1 uM
  activation at 1 µM: 9%
[4]; 10 uM
  activation at 10 µM: 2%
[5]; IP 0.1 × 3 mg/kg
  SERUM TITER (Reciprocal Serum Dilution): 32
[5]; IP 1 × 3 mg/kg
  SERUM TITER (Reciprocal Serum Dilution): 32
[5]; IP 10 × 3 mg/kg
  SERUM TITER (Reciprocal Serum Dilution): 128
[5]; IP 100 × 3 mg/kg
  SERUM TITER (Reciprocal Serum Dilution): 16
  died on Day 3: 2/6
Mice C57B1/6
  pathohistological changes: none of the regressive-progressive or inflammatory type of changes were detected
Neurodermitis
  improvements versus corticosteroids: observed rapidly, faster than in cases when corticosteroids were applied
  occurrence of relapses versus local corticosteroids: a bit later
CHO cells
  defect of spiralization: not observed
  overall structural chromosome damages and number of cells with 2 to 4 aberrations: increased several fold
Lichen ruber planus
  activity in treatment of Lichen rubber planus: strong activity
In vitro
  MCC: ≥ 200 µg/mL
